In patent US6410533B1, “Antibacterial compounds” (Genzyme Corporation, priority 2000, dated 2002):
Converted amounts (≈) assume the structure as drawn.

Legend:
[1] = tested on: Staphylococcus aureus bacteria (ATCC 9604 SV); test: IC50 determination, growth inhibition by turbidity at 550 nm; type: cell-based; details: Staphylococcus aureus ATCC 9604 SV; turbidity at 550 nm after 3-5 h at 37° C.
Outline: (§1)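 MIC: broth microdilution per NCCLS in Mueller-Hinton broth; overnight culture adjusted to 0.05 McFarland and diluted twenty-fold into compound-containing broth. IC50: inoculum at 0.1 McFarland diluted two-fold into TB broth with compound, 3–5 h at 37° C. Turbidity at 550 nm; IC50 is the concentration giving 50% growth inhibition.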

[2] = tested on: Staphylococcus aureus bacteria (ATCC 9604 SV); test: Minimal inhibitory concentration (MIC), broth microdilution; type: cell-based; details: Staphylococcus aureus ATCC 9604 SV, 24 h at 37° C.
Outline: as §1

[3] = tested on: methicillin-resistant Staphylococcus aureus (ATCC 33591); test: In vivo mouse intraperitoneal infection, mortality and % survivors over 7 days; details: single dose 1 h post inoculation, MRSA ATCC 33591 i.p., ICR mice
Outline: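 Survival and mortality were scored for 7 days after i.p. challenge of 20 g male ICR mice (n=10) with an LD90-100 inoculum (2-3×10^7 CFU/mouse) of MRSA ATCC 33591 in 5% mucin. Treatment was subcutaneous in 1% cremophore EL/saline, either once at 1 h or twice at 1 h and 5 h.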

How did the IC50 [1] turn out when `O=C(Nc1cc(C(F)(F)F)cc(C(F)(F)F)c1)Nc1nc(-c2ccc(F)c(F)c2)cs1` [Compound 151] was run?
The IC50 was 132 nM.

What about the MIC [2] of the same molecule?
Its MIC is 1.40 µg/mL (≈ 3 µM).

What about the “In Vivo, single dose (% of mice rescued)” value ([3]; 2 mg/kg s.c.) of the same molecule?
The value was 0% @ 2 mg/kg.

What about the “In Vivo, single dose (% of mice rescued)” value ([3]; 20 mg/kg s.c.) of the same molecule?
Its value is 0% @ 20 mg/kg.

Which IC50 [1] does the source give for `O=C(Nc1cc(C(F)(F)F)cc(C(F)(F)F)c1)Nc1cc(-c2ccco2)nn1-c1ccc(Br)cc1` [Compound 113] here?
The IC50 was 152 nM.

What about the MIC [2] of the same molecule?
The MIC was less than 0.839 µg/mL.

What about the “In Vivo, single dose (% of mice rescued)” value ([3]; 2 mg/kg s.c.) of the same molecule?
The value was 25% @ 2 mg/kg.

And the “In Vivo, single dose (% of mice rescued)” value ([3]; 20 mg/kg s.c.)?
The value was 0% @ 20 mg/kg.

Which IC50 [1] does the source give for `O=C(Nc1cc(C(F)(F)F)cc(C(F)(F)F)c1)Nc1cc(-c2cccs2)nn1-c1ccc(Br)cc1` [Compound 109] here?
The IC50 was 155 nM.

And the MIC [2]?
Its MIC is less than 0.863 µg/mL.

What about the “In Vivo, single dose (% of mice rescued)” value ([3]; 2 mg/kg s.c.) of the same molecule?
The value was 25% @ 2 mg/kg.

What about the “In Vivo, single dose (% of mice rescued)” value ([3]; 20 mg/kg s.c.) of the same molecule?
The value was 25% @ 20 mg/kg.

Which IC50 [1] does the source give for `O=C(Nc1ccc(F)c(C(F)(F)F)c1)Nc1nc(-c2ccc(F)c(F)c2)cs1` [Compound 168] here?
Its IC50 is 180 nM.

What about the MIC [2] of the same molecule?
The MIC was less than 0.626 µg/mL.

What about the “In Vivo, single dose (% of mice rescued)” value ([3]; 2 mg/kg s.c.) of the same molecule?
The value was 0% @ 2 mg/kg.

What about the “In Vivo, single dose (% of mice rescued)” value ([3]; 20 mg/kg s.c.) of the same molecule?
Its value is 0% @ 20 mg/kg.

`Cc1cc(-c2csc(NC(=O)Nc3cc(C(F)(F)F)cc(C(F)(F)F)c3)n2)ccc1F` [Compound 152] was tested. Which IC50 [1] did it give?
Its IC50 is 171 nM.

And the MIC [2]?
The MIC was 1.39 µg/mL (≈ 3 µM).

What about the “In Vivo, single dose (% of mice rescued)” value ([3]; 2 mg/kg s.c.) of the same molecule?
Its value is 0% @ 2 mg/kg.

What about the “In Vivo, single dose (% of mice rescued)” value ([3]; 20 mg/kg s.c.) of the same molecule?
Its value is 0% @ 20 mg/kg.

For `COCCN(CCOC)Cc1cc(NC(=O)Nc2cc(Cl)cc(Cl)c2)n(-c2ccc(Br)cc2)n1` [Compound 102], which IC50 [1] is on record?
The IC50 was 3520 nM.

And the MIC [2]?
The MIC was 28.6 µg/mL (≈ 50.1 µM).

What about the “In Vivo, single dose (% of mice rescued)” value ([3]; 2 mg/kg s.c.) of the same molecule?
Its value is 0% @ 2 mg/kg.

What about the “In Vivo, single dose (% of mice rescued)” value ([3]; 20 mg/kg s.c.) of the same molecule?
Its value is 25% @ 20 mg/kg.

For `O=C(Nc1cc(C(F)(F)F)cc(C(F)(F)F)c1)Nc1cc(-c2ccccc2)nn1CC(F)(F)F` [Compound 121], which IC50 [1] is on record?
The IC50 was 84 nM.

And the MIC [2]?
The MIC was less than 1.49 µg/mL.

What about the “In Vivo, single dose (% of mice rescued)” value ([3]; 2 mg/kg s.c.) of the same molecule?
Its value is 0% @ 2 mg/kg.

And the “In Vivo, single dose (% of mice rescued)” value ([3]; 20 mg/kg s.c.)?
Its value is 0% @ 20 mg/kg.

How did the IC50 [1] turn out when `Cc1cc(NC(=O)Nc2cc(Cl)cc(Cl)c2)n(-c2ccc(Br)cc2)n1` [Compound 96] was run?
The IC50 was 967 nM.

What about the MIC [2] of the same molecule?
The MIC was greater than 22.0 µg/mL.

And the “In Vivo, single dose (% of mice rescued)” value ([3]; 2 mg/kg s.c.)?
The value was 0% @ 2 mg/kg.

What about the “In Vivo, single dose (% of mice rescued)” value ([3]; 20 mg/kg s.c.) of the same molecule?
Its value is 25% @ 20 mg/kg.

With `O=C(Nc1cc(Cl)cc(Cl)c1)Nc1cc(-c2ccccc2)nn1CC(F)(F)F` [Compound 120] as the molecule, how does the IC50 [1] read?
Its IC50 is 291 nM.

What about the MIC [2] of the same molecule?
The MIC was greater than 21.5 µg/mL.

What about the “In Vivo, single dose (% of mice rescued)” value ([3]; 2 mg/kg s.c.) of the same molecule?
The value was 0% @ 2 mg/kg.

And the “In Vivo, single dose (% of mice rescued)” value ([3]; 20 mg/kg s.c.)?
The value was 0% @ 20 mg/kg.
